In brackets after ≈: the same amount, converted by molar mass. Where only a bound is given, the exact number is not on record here.

Common to all, as to format: cell-based
In assay [1] the test system is Pasteurella multocida PM 6267 (P 2225 (L386), reference strain, mouse infection strain). Put plainly: MIC, broth-microdilution (CLSI VET01-A4), strain PM 6267. To be noted: Pasteurella multocida strain PM 6267, broth-microdilution; unit assumed. The method, then: (§1) For example, representative compounds were tested against ***, Mannheimia haemolytica and Pasteurella multocida, using the conventional broth-dilution assay.
(§2) The Minimum inhibitory concentrations (MIC) of compounds according to the invention for a number of veterinary bacterial pathogens were determined by the broth-microdilution method according to CLSI document VET01-A4.
(§3) Microdilution trays containing a doubling dilution series of the test compound were used for the tests. The MIC results were interpreted according to the CLSI documents VET01-S3. The lowest concentration of compound at which no visible growth (i.e. no turbidity) detected by the unaided eye was recorded as the MIC.
Background: In broth dilution the organism is exposed to a series of concentrations in liquid medium.

In assay [2] the test system is Pasteurella multocida PM 10775 (080130003051, BRD field isolate). Briefly: MIC, broth-microdilution (CLSI VET01-A4), strain PM 10775. Particulars: Pasteurella multocida strain PM 10775, broth-microdilution; unit assumed. As for the experimental part:
as §1, §2, §3

Assay [3] relates to Mannheimia haemolytica MH 13093 (XB0472-6014.1, BRD field isolate). Put plainly: MIC, broth-microdilution (CLSI VET01-A4), strain MH 13093. Particulars: Mannheimia haemolytica strain MH 13093, broth-microdilution; unit assumed. The method, then:
as §1, §2, §3

For assay [4], the system named is Mannheimia haemolytica MH 10720 (154, BRD field isolate). Put plainly: MIC, broth-microdilution (CLSI VET01-A4), strain MH 10720. To be noted: Mannheimia haemolytica strain MH 10720, broth-microdilution; unit assumed. The method, then:
as §1, §2, §3

Assay [5] relates to Pasteurella multocida PM 12080 (IV102277-0093, BRD field isolate). Briefly: MIC, broth-microdilution (CLSI VET01-A4), strain PM 12080. Particulars: Pasteurella multocida strain PM 12080, broth-microdilution; unit assumed. The method, then: as §1, §2, §3
The subject of assay [6] is Mannheimia haemolytica MH 13065 (XB0446-6003.9, BRD field isolate). Put plainly: MIC, broth-microdilution (CLSI VET01-A4), strain MH 13065. To be noted: Mannheimia haemolytica strain MH 13065, broth-microdilution; unit assumed. The method, then:
as §1, §2, §3

Assay [7] deals with Mannheimia haemolytica MH 6374 (ATCC 33396, reference strain). Put plainly: MIC, broth-microdilution (CLSI VET01-A4), strain MH 6374. To be noted: Mannheimia haemolytica strain MH 6374, broth-microdilution; unit assumed. The method, then:
as §1, §2, §3

The test system of assay [8] is Mannheimia haemolytica MH 12587 (1071, BRD field isolate, macrolide-resistance: erm+, E+). Put plainly: MIC, broth-microdilution (CLSI VET01-A4), strain MH 12587. Particulars: Mannheimia haemolytica strain MH 12587, broth-microdilution; unit assumed. As for the experimental part:
as §1, §2, §3

Assay [9] deals with Mannheimia haemolytica MH 6357 (M7/2, reference strain, cattle infection strain). Briefly: MIC, broth-microdilution (CLSI VET01-A4), strain MH 6357. To be noted: Mannheimia haemolytica strain MH 6357, broth-microdilution; unit assumed. As for the experimental part: as §1, §2, §3

`CN(Cc1ccccc1)Cc1ccc(C#Cc2ccc(C(=O)N[C@@H](CO)C(=O)NO)cc2)cc1` [Compound 86] yielded an MIC PM 6267 in assay [1] of at most 0.1 µg/mL. Moreover, the MIC PM 10775 in assay [2] was at most 0.1 µg/mL. In [3], this molecule had an MIC MH 13093 of 3.1 µg/mL (≈ 6.78 µM). Also, the MIC MH 10720 in assay [4] was determined as 0.4 µg/mL (≈ 0.874 µM). The molecule also returned an MIC PM 12080 in [5] of 0.8 µg/mL (≈ 1.75 µM). Further, the MIC MH 13065 in assay [6] came out at 1.6 µg/mL (≈ 3.5 µM). In [7], this molecule showed an MIC MH 6374 of 0.8 µg/mL (≈ 1.75 µM). The molecule also came in with an MIC MH 12587 in assay [8] of 3.1 µg/mL (≈ 6.78 µM). Also, the MIC MH 6357 in assay [9] was determined as 1.6 µg/mL (≈ 3.5 µM).
In the case of `O=C(N[C@@H](CO)C(=O)NO)c1ccc(C#Cc2ccc(CNCc3ccc(Cl)cc3)cc2)cc1` [Compound 87], the MIC PM 6267 in assay [1] stood at 0.2 µg/mL (≈ 0.418 µM). Further, the MIC PM 10775 in assay [2] was at most 0.1 µg/mL. In assay [3], this molecule had an MIC MH 13093 of 3.1 µg/mL (≈ 6.49 µM). Moreover, the MIC MH 10720 in [4] came out at 1.6 µg/mL (≈ 3.35 µM). The molecule also registered an MIC PM 12080 in assay [5] of 1.6 µg/mL (≈ 3.35 µM). Besides, the MIC MH 13065 in assay [6] came out at 3.1 µg/mL (≈ 6.49 µM). The same molecule came in with an MIC MH 6374 in [7] of 0.8 µg/mL (≈ 1.67 µM). The molecule also had an MIC MH 12587 in assay [8] of 6.3 µg/mL (≈ 13.2 µM). In [9], this molecule displayed an MIC MH 6357 of 3.1 µg/mL (≈ 6.49 µM).
On to `COc1ccc(CNCc2ccc(C#Cc3ccc(C(=O)N[C@@H](CO)C(=O)NO)cc3)cc2)cc1` [Compound 88], for which the MIC PM 6267 in [1] turned out to be 0.2 µg/mL (≈ 0.422 µM). Further, in assay [2], the MIC PM 10775 was at most 0.1 µg/mL. This molecule also gave an MIC MH 13093 in assay [3] of 12.5 µg/mL (≈ 26.4 µM). Further, in assay [4], the MIC MH 10720 worked out at 1.6 µg/mL (≈ 3.38 µM). The molecule further gave an MIC PM 12080 in assay [5] of 1.6 µg/mL (≈ 3.38 µM). The molecule also had an MIC MH 13065 in assay [6] of 3.1 µg/mL (≈ 6.55 µM). The molecule further gave an MIC MH 6374 in assay [7] of 1.6 µg/mL (≈ 3.38 µM). The same molecule yielded an MIC MH 12587 in assay [8] of 6.3 µg/mL (≈ 13.3 µM). For the same molecule, the MIC MH 6357 in [9] came out at 6.3 µg/mL (≈ 13.3 µM).
In assay [1], `O=C(N[C@@H](CO)C(=O)NO)c1ccc(C#Cc2ccc(CNCc3ccc(C(F)(F)F)cc3)cc2)cc1` [Compound 89] displayed an MIC PM 6267 of 0.4 µg/mL (≈ 0.782 µM). This molecule also returned an MIC PM 10775 in assay [2] of at most 0.1 µg/mL. This molecule showed an MIC MH 13093 in assay [3] of 6.3 µg/mL (≈ 12.3 µM). This molecule displayed an MIC MH 10720 in assay [4] of 1.6 µg/mL (≈ 3.13 µM). This molecule registered an MIC PM 12080 in assay [5] of 1.6 µg/mL (≈ 3.13 µM). The same molecule returned an MIC MH 13065 in assay [6] of 6.3 µg/mL (≈ 12.3 µM). The same molecule gave an MIC MH 6374 in assay [7] of 3.1 µg/mL (≈ 6.06 µM). In assay [8], the MIC MH 12587 came out at 12.5 µg/mL (≈ 24.4 µM). Moreover, in assay [9], the MIC MH 6357 is 6.3 µg/mL (≈ 12.3 µM).
As to `O=C(N[C@@H](CO)C(=O)NO)c1ccc(C#Cc2ccc(CNCc3ccncc3)cc2)cc1` [Compound 90], the MIC PM 6267 in assay [1] was at most 0.1 µg/mL. The MIC PM 10775 in assay [2] is at most 0.1 µg/mL. Also, the MIC MH 13093 in [3] is 1.6 µg/mL (≈ 3.6 µM). This molecule also gave an MIC MH 10720 in assay [4] of 1.6 µg/mL (≈ 3.6 µM). In addition, the MIC PM 12080 in assay [5] turned out to be 0.8 µg/mL (≈ 1.8 µM). The same molecule yielded an MIC MH 13065 in assay [6] of 1.6 µg/mL (≈ 3.6 µM). Further, in assay [7], the MIC MH 6374 turned out to be 1.6 µg/mL (≈ 3.6 µM). For the same molecule, the MIC MH 12587 in assay [8] is 3.1 µg/mL (≈ 6.97 µM). In assay [9], the MIC MH 6357 was 3.1 µg/mL (≈ 6.97 µM).
The molecule `Cc1ccc(CNCc2ccc(C#Cc3ccc(C(=O)N[C@@H](CO)C(=O)NO)cc3)cc2)cc1C` [Compound 91] registered an MIC PM 6267 in [1] of 0.4 µg/mL (≈ 0.848 µM). In [2], this molecule had an MIC PM 10775 of at most 0.1 µg/mL. In assay [3], this molecule returned an MIC MH 13093 of 12.5 µg/mL (≈ 26.5 µM). Further, the MIC MH 10720 in [4] is 1.6 µg/mL (≈ 3.39 µM). The MIC PM 12080 in assay [5] was determined as 1.6 µg/mL (≈ 3.39 µM). Also, in [6], the MIC MH 13065 came out at 6.3 µg/mL (≈ 13.4 µM). Also, the MIC MH 6374 in assay [7] turned out to be 3.1 µg/mL (≈ 6.57 µM). The MIC MH 12587 in assay [8] was determined as 12.5 µg/mL (≈ 26.5 µM). The molecule also had an MIC MH 6357 in assay [9] of 6.3 µg/mL (≈ 13.4 µM).
With `CC(C)[C@H](NC(=O)c1ccc(C#Cc2ccc(CNC3CC3)cc2)cc1)C(=O)NO` [Compound 92], in assay [1], the MIC PM 6267 was at most 0.1 µg/mL. The molecule further gave an MIC PM 10775 in assay [2] of at most 0.1 µg/mL. Moreover, the MIC MH 13093 in [3] came to 0.2 µg/mL (≈ 0.493 µM). In assay [4], this molecule gave an MIC MH 10720 of at most 0.1 µg/mL. Further, in assay [5], the MIC PM 12080 is at most 0.1 µg/mL. This molecule also registered an MIC MH 13065 in assay [6] of at most 0.1 µg/mL. The molecule further came in with an MIC MH 6374 in assay [7] of at most 0.1 µg/mL. For the same molecule, the MIC MH 12587 in [8] came out at 0.2 µg/mL (≈ 0.493 µM). Moreover, the MIC MH 6357 in assay [9] turned out to be 0.8 µg/mL (≈ 1.97 µM).
The molecule `CC(C)NCc1ccc(C#Cc2ccc(C(=O)N[C@H](C(=O)NO)C(C)C)cc2)cc1` [Compound 93] had an MIC PM 6267 in [1] of at most 0.1 µg/mL. The same molecule displayed an MIC PM 10775 in assay [2] of at most 0.1 µg/mL. The same molecule yielded an MIC MH 13093 in assay [3] of 12.5 µg/mL (≈ 30.7 µM). For the same molecule, the MIC MH 10720 in [4] was 3.1 µg/mL (≈ 7.61 µM). The MIC PM 12080 in assay [5] was determined as 1.6 µg/mL (≈ 3.93 µM). In addition, in assay [6], the MIC MH 13065 was 6.3 µg/mL (≈ 15.5 µM). Also, the MIC MH 6374 in assay [7] turned out to be 6.3 µg/mL (≈ 15.5 µM). In assay [8], this molecule displayed an MIC MH 12587 of 12.5 µg/mL (≈ 30.7 µM). The MIC MH 6357 in [9] is 6.3 µg/mL (≈ 15.5 µM).
Take `C=CCNCc1ccc(C#Cc2ccc(C(=O)N[C@H](C(=O)NO)C(C)C)cc2)cc1` [Compound 94]: the MIC PM 6267 in assay [1] was at most 0.1 µg/mL. The same molecule returned an MIC PM 10775 in assay [2] of at most 0.1 µg/mL. Besides, in assay [3], the MIC MH 13093 amounted to 1.6 µg/mL (≈ 3.95 µM). Besides, the MIC MH 10720 in assay [4] turned out to be 0.8 µg/mL (≈ 1.97 µM). This molecule also returned an MIC PM 12080 in assay [5] of 0.8 µg/mL (≈ 1.97 µM). In [6], the MIC MH 13065 came to 0.8 µg/mL (≈ 1.97 µM). In addition, the MIC MH 6374 in assay [7] was 0.8 µg/mL (≈ 1.97 µM). Also, the MIC MH 12587 in assay [8] came to 1.6 µg/mL (≈ 3.95 µM). The molecule also gave an MIC MH 6357 in assay [9] of 12.5 µg/mL (≈ 30.8 µM).

The values above are taken from patent US11034650B2, “Compounds useful for treating a Mannheimia haemolytica or Histophilus somni infection” (Intervet Inc., priority 2016, dated 2021).
